From US9382226B2, “Aldosterone synthase inhibitors” (Merck Sharp & Dohme Corp., priority 2010, dated 2016)

Legend:
human CYP11B2 = biological target: T1, human CYP11B2 (Homo sapiens, UniProt P19099); assay: V79-Human-CYP11B2 cell assay (aldosterone formation, HTRF); type: cell-based; details: V79 cells stably expressing human CYP11B2; substrate 125 nM 11-deoxycorticosterone; 3 hours
T1 construct: expressed in transfected cells; host or cells: V79 cells (clone V79-hCYP11B2-CLE9)
T1 sequence (P19099 25-503): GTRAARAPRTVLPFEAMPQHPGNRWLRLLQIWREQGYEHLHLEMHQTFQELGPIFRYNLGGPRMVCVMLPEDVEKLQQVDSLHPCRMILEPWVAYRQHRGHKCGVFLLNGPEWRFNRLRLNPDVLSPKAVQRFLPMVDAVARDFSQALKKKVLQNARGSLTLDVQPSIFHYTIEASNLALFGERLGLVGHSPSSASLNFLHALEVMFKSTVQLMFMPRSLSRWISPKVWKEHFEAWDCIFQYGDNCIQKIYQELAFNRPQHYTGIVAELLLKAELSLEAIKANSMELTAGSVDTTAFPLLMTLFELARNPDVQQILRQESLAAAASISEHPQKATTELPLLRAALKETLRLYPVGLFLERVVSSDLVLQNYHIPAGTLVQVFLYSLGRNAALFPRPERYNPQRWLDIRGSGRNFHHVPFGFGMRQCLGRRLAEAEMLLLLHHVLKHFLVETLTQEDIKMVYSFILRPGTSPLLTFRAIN
Protocol: (§1) Methods for V79-Human-CYP11B2 and V79-Human-CYP11B1 Assays: V79 cell lines stably expressing the either the human CYP11B2 or the human CYP11B1 enzyme were generated using a standard transfection protocol. V79 cells were transfected with plasmids pTriEx3-Hygro-hCyp11B2 or pTriEx3-Hygro-hCyp11B1 using Lipofectamine2000 reagent. V79 cells that stably express the human CYP11B2 or human CYP11B1 enzyme were selected for and maintained in DMEM supplemented with 10% FBS and 400 μg/mL hygromycin for ˜2 weeks. Single cell clones were generated by […] in DMEM supplemented with 10% FBS and 400 μg/mL hygromycin until single colonies were obtained. Clones V79-hCYP11B2-CLE9 and V79-hCYP11B1-8C7, were determined to produce the most aldosterone and cortisol, respectively, and were selected for inhibitor screening. For testing of inhibitors, cells were harvested at 80% confluency with 0.5% Trypsan-EDTA, washed once in PBS, and reconstituted in DMEM 0.1% BSA media at a cell concentration of 400,000 cells/mL. 25 μl of cells were added to a 384 well tissue culture treated plate and mixed with 0.25 μl of inhibitor or DMSO (1% final DMSO concentration) for 1 hour at 37° C., 5% CO2. After pre-incubation with inhibitor, the reaction was initiated by adding 5 μl of substrate (final concentration of 125 nM 11-deoxycorticosterone for the CYP11B2 assay or 250 nM 11-deoxycortisol for the CYP11B1 assay). The reaction was carried out for 3 hours at 37° C., 5% CO2 and was stopped by harvesting the supernatants. The amount of product in the supernatant (aldosterone for CYP11B2 assay and cortisol for the CYP11B1 assay) was measured using HTRF-based assay kit (Aldosterone HTRF-CisBio#64ALDPEB, Cortisol HTRF-CisBio #63IDC002-CORT). IC50's for the inhibitor were determined by plotting the amount of product formed against the concentration of inhibitor using sigmoidal dose-response curve (variable slope) fit in GraphPad.

human CYP11B1 = biological target: T2, human CYP11B1 (Homo sapiens, UniProt P15538); assay: V79-Human-CYP11B1 cell assay (cortisol formation, HTRF); type: cell-based; details: V79 cells stably expressing human CYP11B1; substrate 250 nM 11-deoxycortisol; 3 hours
T2 construct: expressed in transfected cells; host or cells: V79 cells (clone V79-hCYP11B1-8C7)
T2 sequence (P15538 25-503): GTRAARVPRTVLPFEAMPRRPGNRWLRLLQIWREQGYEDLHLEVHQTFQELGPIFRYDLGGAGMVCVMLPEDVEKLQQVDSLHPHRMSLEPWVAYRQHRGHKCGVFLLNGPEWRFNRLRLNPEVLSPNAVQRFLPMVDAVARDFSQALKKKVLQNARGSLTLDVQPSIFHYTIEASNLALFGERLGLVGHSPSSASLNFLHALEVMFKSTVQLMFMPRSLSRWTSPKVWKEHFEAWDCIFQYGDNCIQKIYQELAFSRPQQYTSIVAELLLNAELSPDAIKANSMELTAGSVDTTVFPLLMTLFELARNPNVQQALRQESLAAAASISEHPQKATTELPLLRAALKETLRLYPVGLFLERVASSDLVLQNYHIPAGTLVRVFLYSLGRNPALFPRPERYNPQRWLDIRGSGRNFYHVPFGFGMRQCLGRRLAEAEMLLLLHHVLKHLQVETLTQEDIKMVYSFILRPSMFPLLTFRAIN
Protocol: as §1, with “Clones V79-hCYP11B2-CLE9 and V79-hCYP11B1-8C7, were determined to produce the most aldosterone and cortisol, respectively, and were selected for inhibitor screening.” left out, “After pre-incubation with inhibitor, the reaction was initiated by adding 5 μl of substrate (final concentration of 125 nM 11-deoxycorticosterone for the CYP11B2 assay or 250 nM 11-deoxycortisol for the CYP11B1 assay).” left out

Compound	IC50 (human CYP11B2) [nM]	IC50 (human CYP11B1) [nM]
Cn1c(-c2cccnc2)nc2ccc(Cl)cc21 [Example 233, 6-chloro-1-methyl-2-(pyridin-3-yl)-1H-benzimidazole]	1.15	270
Cc1cncc(-c2nc3ccc(F)c(F)c3n2C)c1C [Example 268, 2-(4,5-dimethylpyridin-3-yl)-6,7-difluoro-1-methyl-1H-benzimidazole]	0.234	117
